Experimental data published in US8496942B2, “Therapeutic peptides and uses thereof” (priority 2006, dated 2013).
Where a SMILES comes first, the peptide text is derived from it.

Columns and labels:
[1] = test system: HIV-1 clade B (Strain SF162) and clade C (Strain 97ZA009); test: Inhibition of HIV replication (neutralization) in PBMCs, p24 immunoassay; format: cell-based; details: 10 nM, FIGS. 13A-B
Protocol: The ability of the peptides to inhibit replication of HIV, both alone and in combination with antibodies, was tested as follows. Approximately 3 million cells of frozen human PBMCs, obtained from the California Blood Bank system, were thawed at 37° C. and transferred to a 50 mL conical tube where 8 mL of wash medium were added slowly. Then an additional 8 mL of wash medium were added and swirled to mix. The cells were then centrifuged at 330 g for 10 min, the supernatant was removed and the pellet was resuspended in 10 mL wash medium and centrifuged as above. The washed cells were then resuspended in RPMI-B medium containing 10% FBS, phytohemagglutin was added to 5 μg/mL, and cells were incubated at 37° C. for 24 hr in humidified 5% CO2. Cells were washed, suspended to about 6 million cells per mL, and 50 μL, (about 250,000 viable cells) were added to each test well. Then 100 ↑L of the test peptide were added at a concentration sufficient to provide the desired final concentration, followed by 100 μL of virus suspension (100 median tissue culture infective doses (TCID50s)). The assay plate was incubated 3 days at 37° C., then washed 3 times to remove unbound virus, and the cells were again suspended to 250 μL of medium. After an additional 24 hr of incubation, cells were lysed with Triton X-100 and each sample was assayed by an enzyme-linked immunoassay for virus protein p24 to quantify neutralization of virus. In another set of samples, antibody preparations were also added at a desired concentration (i.e., in addition to peptide).
This peptide construct was assayed for activity with two strains of HIV, clade B (Strain SF162) and clade C (Strain 97ZA009), both of which were provided by the California Department of Public Health (Richmond, Calif.). HIV-1 clade B is the major strain in North America and HIV-1 clade C is the major strain in central and southern Africa, India and China. The peptide was assayed either alone (−) or in combination with serum from HIV-infected individuals (+), as outlined below in TABLE 3.
(SEQ ID NO:7). The short bars represent neutralization by peptide alone. The long bars represent neutralization when pooled serum from HIV-positive patients was added along with the peptide. The bars represent averages from two experiments, each performed in quadruplicate. In one set of experiments, each peptide was assayed at 10 nM for the ability to inhibit replication. In the absence of peptide, the antibody preparation (serum) provided only about 30% neutralization (inhibition), at the same dilution (data not shown).

[2] = test system: macrophages in PBMC cultures; test: Phagocytosis of microspheres opsonized with anti-HIV antibodies; format: cell-based, human
Protocol: The ability of the peptide constructs to stimulate phagocytosis was assessed in two experiments. In the first experiment, a biotin-tagged peptide epitope of a surface protein of HIV-1 was bound to streptvidin on the surface of the beads. An antibody preparation that was raised against this epitope was then bound to the HIV peptide. The beads were then washed and presented to peripheral blood mononuclear cell (PBMC) cultures pretreated with peptides. […] In multiple control cultures, the number of beads within a macrophage-like cell ranged from 0 to 3. […] In the treated cultures, greater than 20 beads were counted in each phagocytic cell. After several subsequent and similar experiments were conducted, a phagocytic index was developed for the activity of macrophages to ingest microspheres opsonized with anti-HIV antibodies (TABLE 1).

PBMCs = test: Induction of cytokine release from PBMCs (membrane antibody array); format: cell-based, human; details: PBMC medium, 4 hr, 100 nM peptide; for Relative concentration of IL-21: IFN-γ printed in place of LPS
Protocol: To determine whether inhibition of HIV replication by the peptide may be the result of induction of release of cytokines, cultured PBMCs were treated with one peptide embodiment of the present invention and, after 4 hr incubation, the medium was collected and assayed for changes in the amounts of 40 different cytokines. […] Approximately 3 million cells of frozen human PBMCs were thawed at 37° C. and transferred to a 50 mL conical tube where 8 mL of wash medium were added slowly. Then an additional 8 mL of wash medium were added and swirled to mix. The cells were then centrifuged at 330 g for 10 min, the supernatant was removed and the pellet was resuspended in 10 mL wash medium and centrifuged as above. The washed cells were then resuspended in RPMI-1640 medium containing 10% FBS to about 6 million cells per mL and 100 μL of the suspension were added into each well of a 96-well microtiter plate and incubated overnight at 37° C. in humidified 5% CO2. After 24 hr the medium was replaced with 200 μL fresh RPMI-1640 medium containing 10% FBS and incubated at 37° C. in humidified 5% CO2 for 2 days. For the data shown in TABLE 4, the peptide aliquot was then added to samples in duplicate at a final concentration of 100 nM and incubated at 37° C. in humidified 5% CO2 for 4 hr. For other experiments (data not included), the incubation was continued for 24 hr. The medium was then removed and stored at −80° C. The samples were analyzed for production of cytokines One set of control cells was not treated with an experimental agent.
Culture medium was removed for assay of cytokine levels with methods developed by RayBiotech, Inc. (Norcross, Ga.). In this technology, membrane arrays of antibodies against cytokines were incubated with samples of media. After washing, the array was incubated with a cocktail of all antibodies tagged with biotin. The membrane was then washed free of unbound antibodies and incubated with streptavidin labeled with a fluorescent dye. After a final wash, the membrane arrays were read in a fluorescence detector.

[3] = test system: lectins (HP, GS, WGA, DB, UEA1, SNA1, MAA, concanavalin A); test: Lectin binding, panel of lectins (valency and specificity); details: seven lectins, equal number of HPSLK sequences per well, FIG. 4
Description: Each assay used the same basic procedure.
FIG. 6 illustrates the specificity with which the quadravalent peptide constructs bind to different lectins.

PBMC cultures = details: 72 hr, 1 mM, FIG. 15
Protocol: The ability of peptides to reduce viability of cells in PBMC cultures was assayed by adding a range of concentrations and testing viability by dye uptake. PBMC cultures were incubated with the peptides for 72 hr each at the increasing concentrations of 1 nM, 1 μM and 1 mM. Ability of cells to exclude a dye was an indication of viability as viable cells express green fluorescence and non-viable cells express orange fluorescence.

[4] = test system: peripheral blood mononuclear cells; test: Phagocytosis of opsonized microspheres by peptide-treated PBMCs (second experiment); format: cell-based, human; details: 50 nM peptide construct; interferon-gamma 100 ng/mL
Protocol: In a second experiment, streptavidin-coated microspheres, dyed with Dragon Green (0.97 μm diameter, Bangs Laboratories, Inc., Fishers, Ind.) were opsonized with rabbit anti-streptavidin serum (Sigma-Aldrich) and washed with phosphate buffered saline, pH 7.4 (PBS). Human PBMCs were cultured in microtiter plates in RPMI-1640 medium containing 10% fetal bovine serum (FBS) and 1:100 dilution of penicillin-streptomycin solution (Mediatech, Inc., Herndon, Va.) Cultures were washed to remove non-adherent cells, and fresh medium containing FBS, antibiotics, and 50 nM peptide was added to adherent cells for an additional 20 to 24 h. Microspheres were added at approximately a 10:1 ratio to total cells, and after an additional 30 to 60 min of incubation, a solution containing 2% formalin was added. […]
FIGS. 9A-I illustrate phagocytosis of opsonized microspheres by peptide-treated PBMCs. […] The experiment was quantified by counting the number of beads in the phagocytic cells (TABLE 2).
In order to establish that the bead-like material within the cells was indeed engulfed beads, fluorescence was examined. […] Cells were examined by both phase contrast microscopy (left panels) and fluorescence microscopy with blue excitation light (right panels). […]

Molecule	inhibitory activity when assayed alone [1]	level of inhibition with antibodies added [1]	Phagocytosis Index [2]	Relative concentration of IL-12p40 (PBMCs)	Relative concentration of IL-15 (PBMCs)	Relative concentration of IL-16 (PBMCs)	Relative concentration of IL-17 (PBMCs)	Relative concentration of sTNF RII (PBMCs)	Relative concentration of IL-21 (PBMCs)	Beads/cell (mean ± SD) [4]	further results
VGGGS: peptide construct containing four copies of the core sequence VGGGS	substantial inhibitory activity	enhanced by adding antibodies	+++ (+++ = 15)	51 arbitrary units	130 arbitrary units	10 arbitrary units	24 arbitrary units	26 arbitrary units			Relative concentration of ICAM-1 (PBMCs): 89 arbitrary units; Relative concentration of IL-1α (PBMCs): 291 arbitrary units; Relative concentration of IL-2 (PBMCs): 125 arbitrary units; Relative concentration of IP-10 (PBMCs): 321 arbitrary units; Relative concentration of RANTES (PBMCs): 213 arbitrary units; Relative concentration of TIMP-2 (PBMCs): 205 arbitrary units; Relative concentration of TNF-β (PBMCs): 111 arbitrary units
PSSNA: peptide construct containing four copies of the core sequence PSSNA	substantial inhibitory activity	enhanced by adding antibodies	+++ (+++ = 15)	28 arbitrary units	153 arbitrary units	12 arbitrary units	21 arbitrary units	21 arbitrary units	130 arbitrary units		Relative concentration of IL-4 (PBMCs): 60 arbitrary units; Relative concentration of IL-8 (PBMCs): 702 arbitrary units; Relative concentration of IL-12p70 (PBMCs): 69 arbitrary units; Relative concentration of TNF-α (PBMCs): 123 arbitrary units
single sequence: peptide with 1 arm containing the core sequence HPSLK											binding relative to the quadravalent peptide (set as 100%) [3]: much lesser extent
CC(C)C[C@H](NC(=O)[C@H](CO)NC(=O)[C@@H]1CCCN1C(=O)[C@@H](N)Cc1c[nH]cn1)C(=O)N[C@@H](CCCCN)C(=O)NCC(=O)NCC(=O)NCC(=O)N[C@@H](CO)C(=O)NCCCC[C@H](NC(=O)[C@H](CO)NC(=O)CNC(=O)CNC(=O)CNC(=O)[C@H](CCCCN)NC(=O)[C@H](CC(C)C)NC(=O)[C@H](CO)NC(=O)[C@@H]1CCCN1C(=O)[C@@H](N)Cc1c[nH]cn1)C(=O)NCCCC[C@H](NC(=O)[C@H](CCCCNC(=O)[C@H](CO)NC(=O)CNC(=O)CNC(=O)CNC(=O)[C@H](CCCCN)NC(=O)[C@H](CC(C)C)NC(=O)[C@H](CO)NC(=O)[C@@H]1CCCN1C(=O)[C@@H](N)Cc1c[nH]cn1)NC(=O)[C@H](CO)NC(=O)CNC(=O)CNC(=O)CNC(=O)[C@H](CCCCN)NC(=O)[C@H](CC(C)C)NC(=O)[C@H](CO)NC(=O)[C@@H]1CCCN1C(=O)[C@@H](N)Cc1c[nH]cn1)C(N)=O [HPSLK] (HELM PEPTIDE1{H.P.S.L.K.G.G.G.S.K.K.[am]}|PEPTIDE2{H.P.S.L.K.G.G.G.S.K}|PEPTIDE3{H.P.S.L.K.G.G.G.S}|PEPTIDE4{H.P.S.L.K.G.G.G.S}$PEPTIDE1,PEPTIDE4,10:R3-9:R2|PEPTIDE1,PEPTIDE2,11:R3-10:R2|PEPTIDE2,PEPTIDE3,10:R3-9:R2$$$V2.0)											viability of cells in PBMC cultures (PBMC cultures): partially reduced viability
VSNQH: peptide construct containing four copies of an inactive core sequence VSNQH, negative control (VNSQH) [reference compound]										1.3 ± 1.8	
Interferon-gamma: interferon-gamma, positive control (protein, UniProt P01579 24-161, looked up) Interferon gamma: QDPYVKEAENLKKYFNAGHSDVADNGTLFLGILKNWKEESDRKIMQSQIVSFYFKLFKNFKDDQSIQKSVETIKEDMNVKFFNSNKKKRDDFEKLTNYSVTDLNVQRKAIHELIQVMAELSPAAKTGKRKRSQMLFRG			+++ (+++ = 15)						(IFN-γ: 100) arbitrary units	35.8 ± 12.6	
